Laboratory results from patent publication US12318403B2, “2′3′-cyclic dinucleotides and prodrugs thereof” (INSTITUTE OF ORGANIC CHEMISTRY AND BIOCHEMISTRY ASCR, V.V.I., priority 2019, dated 2025).
Read-outs that look alike come from different tables or passages of the source.

Tests used:
[1] = test system: peripheral blood mononuclear cell (PBMC); test: Peripheral blood mononuclear cell assay; details: compounds 1h, washed, 15 hour incubation, average of one to four donors
Procedure: Selected compounds were tested in an in vitro peripheral blood mononuclear cell (PBMC) assay. […] Serially diluted tested compounds were added to wells in 50 μl of cultivation medium and cells were incubated with the compounds for 1h at 37° C. with 5% CO2. Plates with cells were then spun 500 g for 5 minutes and the medium was removed. Cells were washed twice with the cell culture medium by the use of centrifugation and gently resuspended in 100 μl medium without compounds. After 15 hour incubation at 37° C. with 5% CO2, the cell culture medium was collected and the levels of interferon-alpha (INF-α), interferon-gamma (INF-γ) and tumor necrosis factor-alpha (TNF-α) were determined with ProcartaPlex Assays (ThermoFisher, Waltham, USA) and MAGPIX System (Merck KGaA, Darmstadt, Germany). […] Values reported are an average of runs from one to four donors.

[2] = molecular target: human wild type STING (WT STING) (Homo sapiens, UniProt Q86WV6, H232R); test: 293T WT STING standard reporter assay; assay type: cell-based; details: 293T WT STING EC50, 293T wtSTING-FL cells; standard reporter assay without digitonin; 7 hours; ISRE firefly luciferase
[3] = read-out: PBMC EC50 IFN-α, interferon-alpha level in medium
[4] = read-out: PBMC EC50 IFN-γ, interferon-gamma level in medium
[5] = read-out: PBMC EC50 TNF-α, tumor necrosis factor-alpha level in medium

Sequence of human wild type STING (WT STING) (Q86WV6 whole entry H232R): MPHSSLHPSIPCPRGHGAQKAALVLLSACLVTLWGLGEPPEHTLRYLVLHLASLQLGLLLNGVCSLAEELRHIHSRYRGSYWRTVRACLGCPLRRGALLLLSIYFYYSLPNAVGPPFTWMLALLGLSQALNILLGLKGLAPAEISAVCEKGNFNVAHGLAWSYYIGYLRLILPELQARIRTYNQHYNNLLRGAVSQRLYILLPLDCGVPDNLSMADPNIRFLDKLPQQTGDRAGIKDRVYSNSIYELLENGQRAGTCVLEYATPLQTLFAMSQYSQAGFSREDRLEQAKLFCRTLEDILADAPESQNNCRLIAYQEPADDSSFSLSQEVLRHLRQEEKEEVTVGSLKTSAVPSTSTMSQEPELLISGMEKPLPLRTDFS

Question: What does the source list for `CCCCCCCCCC(=O)Oc1ccc(CSP2(=O)OC[C@H]3O[C@@H](n4cnc5c(N)ncnc54)[C@H](F)[C@@H]3OCP(=O)(O)OC[C@H]3O[C@@H](n4cnc5c(=O)[nH]c(N)nc54)[C@H](O2)[C@@H]3F)cc1` (single isomer, unassigned) [Compound 35a]?
Answer: EC50 [1, 3]: 2600 nM; EC50 [1, 4]: 3200 nM; EC50 [1, 5]: 1900 nM

Question: `CCCCCCCCCCCC(=O)Oc1ccc(CSP2(=O)OC[C@H]3O[C@@H](n4cnc5c(N)ncnc54)[C@H](F)[C@@H]3OCP(=O)(O)OC[C@H]3O[C@@H](n4cnc5c(=O)[nH]c(N)nc54)[C@H](O2)[C@@H]3F)cc1` (single isomer, unassigned) [Compound 38a] was tested. Which EC50 [1, 3] did it give?
Answer: Its EC50 is 1400 nM.

Question: And the EC50 [1, 4]?
Answer: The EC50 was 2600 nM.

Question: What about the EC50 [1, 5] of the same molecule?
Answer: Its EC50 is 1400 nM.

Question: Which EC50 [1, 3] does the source give for `CC(C)(C)C(=O)OCOc1ccc(CSP2(=O)OC[C@H]3O[C@@H](n4cnc5c(N)ncnc54)[C@H](F)[C@@H]3OCP(=O)(O)OC[C@H]3O[C@@H](n4cnc5c(=O)[nH]c(N)nc54)[C@H](O2)[C@@H]3F)cc1` (single isomer, unassigned) [Compound 39b] here?
Answer: The EC50 was 900 nM.

Question: And the EC50 [1, 4]?
Answer: The EC50 was 1400 nM.

Question: And the EC50 [1, 5]?
Answer: The EC50 was 1000 nM.

Question: How did the EC50 [1, 3] turn out when `CCCCCC(=O)Oc1ccc(C(=O)Oc2ccc(CSP3(=O)OC[C@H]4O[C@@H](n5cnc6c(N)ncnc65)[C@H](F)[C@@H]4OCP(=O)(O)OC[C@H]4O[C@@H](n5cnc6c(=O)[nH]c(N)nc65)[C@H](O3)[C@@H]4F)cc2)cc1` (single isomer, unassigned) [Compound 40b] was run?
Answer: The EC50 was 8100 nM.

Question: And the EC50 [1, 4]?
Answer: The EC50 was 10400 nM.

Question: And the EC50 [1, 5]?
Answer: Its EC50 is 10400 nM.

Question: How did the EC50 [2] turn out when `CC(C)(C)C(=O)OCSP1(=O)CO[C@H]2[C@@H](F)[C@H](n3cnc4c(N)ncnc43)O[C@@H]2COP(=O)(O)O[C@@H]2[C@H](F)[C@@H](CO1)O[C@H]2n1cnc2c(=O)[nH]c(N)nc21` (single isomer, unassigned) [Compound 41a] was run?
Answer: The EC50 was 10400 nM.

Question: With `CC(C)(C)C(=O)OCSP1(=O)CO[C@H]2[C@@H](F)[C@H](n3cnc4c(N)ncnc43)O[C@@H]2COP(=O)(O)O[C@@H]2[C@H](F)[C@@H](CO1)O[C@H]2n1cnc2c(=O)[nH]c(N)nc21` (single isomer, unassigned) [Compound 41b] as the molecule, how does the EC50 [2] read?
Answer: The EC50 was 87800 nM.

Question: Which EC50 [2] does the source give for `CCCCCC(=O)Oc1ccc(CSP2(=O)CO[C@H]3[C@@H](F)[C@H](n4cnc5c(N)ncnc54)O[C@@H]3COP(=O)(O)O[C@@H]3[C@H](F)[C@@H](CO2)O[C@H]3n2cnc3c(=O)[nH]c(N)nc32)cc1` (single isomer, unassigned) [Compound 42a] here?
Answer: Its EC50 is 300 nM.

Question: For `CCCCCC(=O)Oc1ccc(CSP2(=O)CO[C@H]3[C@@H](F)[C@H](n4cnc5c(N)ncnc54)O[C@@H]3COP(=O)(O)O[C@@H]3[C@H](F)[C@@H](CO2)O[C@H]3n2cnc3c(=O)[nH]c(N)nc32)cc1` (single isomer, unassigned) [Compound 42b], which EC50 [2] is on record?
Answer: Its EC50 is 200 nM.

Question: How did the EC50 [2] turn out when `CC(C)(C)C(=O)Oc1ccc(CSP2(=O)CO[C@H]3[C@@H](F)[C@H](n4cnc5c(N)ncnc54)O[C@@H]3COP(=O)(O)O[C@@H]3[C@H](F)[C@@H](CO2)O[C@H]3n2cnc3c(=O)[nH]c(N)nc32)cc1` (single isomer, unassigned) [Compound 43a] was run?
Answer: Its EC50 is 1200 nM.

Question: For `CC(C)(C)C(=O)Oc1ccc(CSP2(=O)CO[C@H]3[C@@H](F)[C@H](n4cnc5c(N)ncnc54)O[C@@H]3COP(=O)(O)O[C@@H]3[C@H](F)[C@@H](CO2)O[C@H]3n2cnc3c(=O)[nH]c(N)nc32)cc1` (single isomer, unassigned) [Compound 43b], which EC50 [2] is on record?
Answer: The EC50 was 3100 nM.

Question: What does the source list for `CCCCCCCCCCCC(=O)OCSP1(=O)OC[C@H]2O[C@@H](n3cnc4c(N)ncnc43)[C@H](F)[C@@H]2OCP(=O)(O)OC[C@H]2O[C@@H](n3cnc4c(=O)[nH]cnc43)[C@H](O1)[C@@H]2F` (single isomer, unassigned) [Compound 56a]?
Answer: EC50 [1, 3]: 1600 nM; EC50 [1, 4]: 2200 nM; EC50 [1, 5]: 1800 nM

Question: How did the EC50 [1, 3] turn out when `CCCCCCCCCCCC(=O)OCSP1(=O)OC[C@H]2O[C@@H](n3cnc4c(N)ncnc43)[C@H](F)[C@@H]2OCP(=O)(O)OC[C@H]2O[C@@H](n3cnc4c(=O)[nH]cnc43)[C@H](O1)[C@@H]2F` (single isomer, unassigned) [Compound 56b] was run?
Answer: Its EC50 is 3000 nM.

Question: What about the EC50 [1, 4] of the same molecule?
Answer: The EC50 was 1300 nM.

Question: What about the EC50 [1, 5] of the same molecule?
Answer: Its EC50 is 2000 nM.

Question: How did the EC50 [1, 3] turn out when `CCCCCCCCCCCC(=O)OCSP1(=O)OC[C@H]2O[C@@H](n3cnc4c(N)ncnc43)[C@H](F)[C@@H]2OCP(=O)(O)OC[C@H]2O[C@@H](n3cnc4c(=O)[nH]c(N)nc43)[C@H](O1)[C@@H]2F` (single isomer, unassigned) [Compound 57b] was run?
Answer: Its EC50 is 1700 nM.

Question: What about the EC50 [1, 4] of the same molecule?
Answer: Its EC50 is 2500 nM.

Question: What about the EC50 [1, 5] of the same molecule?
Answer: Its EC50 is 1600 nM.

Question: `CCCCCCCCCCCCCCCC(=O)OCSP1(=O)OC[C@H]2O[C@@H](n3cnc4c(N)ncnc43)[C@H](F)[C@@H]2OCP(=O)(O)OC[C@H]2O[C@@H](n3cnc4c(=O)[nH]cnc43)[C@H](O1)[C@@H]2F` (single isomer, unassigned) [Compound 64a] was tested. Which EC50 [1, 3] did it give?
Answer: The EC50 was 600 nM.

Question: What about the EC50 [1, 4] of the same molecule?
Answer: Its EC50 is 2600 nM.

Question: And the EC50 [1, 5]?
Answer: The EC50 was 400 nM.

Question: Which results are given for `CCCCCCCCCCCCCCCC(=O)OCSP1(=O)OC[C@H]2O[C@@H](n3cnc4c(N)ncnc43)[C@H](F)[C@@H]2OCP(=O)(O)OC[C@H]2O[C@@H](n3cnc4c(=O)[nH]cnc43)[C@H](O1)[C@@H]2F` (single isomer, unassigned) [Compound 64b]?
Answer: EC50 [1, 3]: 1400 nM; EC50 [1, 4]: 800 nM; EC50 [1, 5]: 2000 nM

Question: What does the source list for `CCCCCCCCCCCCCC(=O)OCSP1(=O)OC[C@H]2O[C@@H](n3cnc4c(N)ncnc43)[C@H](F)[C@@H]2OCP(=O)(O)OC[C@H]2O[C@@H](n3cnc4c(=O)[nH]cnc43)[C@H](O1)[C@@H]2F` (single isomer, unassigned) [Compound 68a]?
Answer: EC50 [1, 3]: 900 nM; EC50 [1, 4]: 1000 nM; EC50 [1, 5]: 600 nM

Question: What does the source list for `Nc1nc2c(ncn2[C@@H]2O[C@@H]3COP(=O)(O)O[C@H]4[C@@H](O)[C@H](n5cnc6c(N)ncnc65)O[C@@H]4COP(=O)(O)O[C@@H]2[C@@H]3O)c(=O)[nH]1` [2′3′-cGAMP, c[G(2′,5′)pA(3′,5′)p], reference compound]?
Answer: EC50 [1, 3]: 300000 nM; EC50 [1, 4]: 164000 nM; EC50 [1, 5]: 210000 nM

Question: With `CCCCCCCCCCCCOC(=O)OCSP1(=O)OC[C@H]2O[C@@H](n3cnc4c(N)ncnc43)[C@H](F)[C@@H]2OCP(=O)(O)OC[C@H]2O[C@@H](n3cnc4c(=O)[nH]cnc43)[C@H](O1)[C@@H]2F` (stereo partly drawn) [Compound 58b, {[(1S,6R,8R,9R,10R,16R,18R,19R)-8-(6-amino-9H-purin-9-yl)-9,19-difluoro-13-hydroxy-3,13-dioxo-18-(6-oxo-6,9-dihydro-1H-purin-9-yl)-2,4,7,11,14,17-hexaoxa-3λ^5,13λ^5-diphosphatricyclo[14.2.1.0^6,10]nonadecan-3-yl]sulfanyl}methyl dodecyl carbonate] as the molecule, how does the EC50 [1, 3] read?
Answer: Its EC50 is 1200 nM.

Question: And the EC50 [1, 4]?
Answer: The EC50 was 1900 nM.

Question: And the EC50 [1, 5]?
Answer: The EC50 was 1300 nM.

Question: For `CCCCCCCCCCCCOC(=O)OCSP1(=O)OC[C@H]2O[C@@H](n3cnc4c(N)ncnc43)[C@H](F)[C@@H]2OCP(=O)(O)OC[C@H]2O[C@@H](n3cnc4c(=O)[nH]c(N)nc43)[C@H](O1)[C@@H]2F` (stereo partly drawn) [Compound 59b, {[(1S,6R,8R,9R,10R,16R,18R,19R)-18-(2-amino-6-oxo-6,9-dihydro-1H-purin-9-yl)-8-(6-amino-9H-purin-9-yl)-9,19-difluoro-13-hydroxy-3,13-dioxo-2,4,7,11,14,17-hexaoxa-3λ^5,13λ^5-diphosphatricyclo[14.2.1.0^6,10]nonadecan-3-yl]sulfanyl}methyl dodecyl carbonate], which EC50 [1, 3] is on record?
Answer: The EC50 was 1800 nM.

Question: And the EC50 [1, 4]?
Answer: The EC50 was 2200 nM.

Question: And the EC50 [1, 5]?
Answer: Its EC50 is 2100 nM.

Question: What does the source list for `CCCCCCCC(=O)OCSP1(=O)OC[C@H]2O[C@@H](n3cnc4c(N)ncnc43)[C@H](F)[C@@H]2OCP(=O)(O)OC[C@H]2O[C@@H](n3cnc4c(=O)[nH]cnc43)[C@H](O1)[C@@H]2F` (stereo partly drawn) [Compound 63b, {[(1S,6R,8R,9R,10R,16R,18R,19R)-8-(6-amino-9H-purin-9-yl)-9,19-difluoro-13-hydroxy-3,13-dioxo-18-(6-oxo-6,9-dihydro-1H-purin-9-yl)-2,4,7,11,14,17-hexaoxa-3λ^5,13λ^5-diphosphatricyclo[14.2.1.0^6,10]nonadecan-3-yl]sulfanyl}methyl octanoate]?
Answer: EC50 [1, 3]: 9000 nM; EC50 [1, 4]: 3700 nM; EC50 [1, 5]: 8000 nM

Question: Which results are given for `CCCCCCCCCCCCCCOC(=O)OCSP1(=O)OC[C@H]2O[C@@H](n3cnc4c(N)ncnc43)[C@H](F)[C@@H]2OCP(=O)(O)OC[C@H]2O[C@@H](n3cnc4c(=O)[nH]cnc43)[C@H](O1)[C@@H]2F` (stereo partly drawn) [Compound 72b, {[(1S,6R,8R,9R,10R,16R,18R,19R)-8-(6-amino-9H-purin-9-yl)-9,19-difluoro-13-hydroxy-3,13-dioxo-18-(6-oxo-6,9-dihydro-1H-purin-9-yl)-2,4,7,11,14,17-hexaoxa-3λ^5,13λ^5-diphosphatricyclo[14.2.1.0^6,10]nonadecan-3-yl]sulfanyl}methyl tetradecyl carbonate]?
Answer: EC50 [1, 3]: 1700 nM; EC50 [1, 4]: 800 nM; EC50 [1, 5]: 1600 nM

Question: Which results are given for `CCCCCCCCCCCCCCCCOC(=O)OCSP1(=O)OC[C@H]2O[C@@H](n3cnc4c(N)ncnc43)[C@H](F)[C@@H]2OCP(=O)(O)OC[C@H]2O[C@@H](n3cnc4c(=O)[nH]cnc43)[C@H](O1)[C@@H]2F` (stereo partly drawn) [Compound 73b, {[(1S,6R,8R,9R,10R,16R,18R,19R)-8-(6-amino-9H-purin-9-yl)-9,19-difluoro-13-hydroxy-3,13-dioxo-18-(6-oxo-6,9-dihydro-1H-purin-9-yl)-2,4,7,11,14,17-hexaoxa-3λ^5,13λ^5-diphosphatricyclo[14.2.1.0^6,10]nonadecan-3-yl]sulfanyl}methyl hexadecyl carbonate]?
Answer: EC50 [1, 3]: 3000 nM; EC50 [1, 4]: 7000 nM; EC50 [1, 5]: 4000 nM

Question: Which EC50 [1, 3] does the source give for `CCCCCCCCCCCCCCCCCCOC(=O)OCSP1(=O)OC[C@H]2O[C@@H](n3cnc4c(N)ncnc43)[C@H](F)[C@@H]2OCP(=O)(O)OC[C@H]2O[C@@H](n3cnc4c(=O)[nH]cnc43)[C@H](O1)[C@@H]2F` (stereo partly drawn) [Compound 74b, {[(1S,6R,8R,9R,10R,16R,18R,19R)-8-(6-amino-9H-purin-9-yl)-9,19-difluoro-13-hydroxy-3,13-dioxo-18-(6-oxo-6,9-dihydro-1H-purin-9-yl)-2,4,7,11,14,17-hexaoxa-3λ^5,13λ^5-diphosphatricyclo[14.2.1.0^6,10]nonadecan-3-yl]sulfanyl}methyl octadecyl carbonate] here?
Answer: The EC50 was 2200 nM.

Question: What about the EC50 [1, 4] of the same molecule?
Answer: Its EC50 is 2400 nM.

Question: What about the EC50 [1, 5] of the same molecule?
Answer: Its EC50 is 3000 nM.
